Assays:
[1] = target: T1, Gastric inhibitory polypeptide receptor (Homo sapiens, UniProt P48546)
T1 sequence (P48546 whole entry): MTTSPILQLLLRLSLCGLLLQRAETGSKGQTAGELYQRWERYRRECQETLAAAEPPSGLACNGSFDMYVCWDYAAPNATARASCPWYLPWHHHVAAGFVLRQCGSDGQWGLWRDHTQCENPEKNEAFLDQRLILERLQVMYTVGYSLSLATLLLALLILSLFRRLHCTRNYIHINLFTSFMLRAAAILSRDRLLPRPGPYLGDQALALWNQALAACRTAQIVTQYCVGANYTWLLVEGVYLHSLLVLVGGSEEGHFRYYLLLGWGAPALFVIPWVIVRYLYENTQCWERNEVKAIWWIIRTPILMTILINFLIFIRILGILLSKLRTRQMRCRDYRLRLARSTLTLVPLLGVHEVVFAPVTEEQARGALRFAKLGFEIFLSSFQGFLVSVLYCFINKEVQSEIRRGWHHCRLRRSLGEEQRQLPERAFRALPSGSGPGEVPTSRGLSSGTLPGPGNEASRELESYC

[2] = target: 3',5'-cyclic-AMP phosphodiesterase 4D (Homo sapiens, UniProt Q08499); format: functional
[3] = target: Melanocortin receptor 3 (Homo sapiens, UniProt P41968)
[4] = target: T2, B2 bradykinin receptor (Homo sapiens, UniProt P30411)
T2 sequence (P30411 whole entry): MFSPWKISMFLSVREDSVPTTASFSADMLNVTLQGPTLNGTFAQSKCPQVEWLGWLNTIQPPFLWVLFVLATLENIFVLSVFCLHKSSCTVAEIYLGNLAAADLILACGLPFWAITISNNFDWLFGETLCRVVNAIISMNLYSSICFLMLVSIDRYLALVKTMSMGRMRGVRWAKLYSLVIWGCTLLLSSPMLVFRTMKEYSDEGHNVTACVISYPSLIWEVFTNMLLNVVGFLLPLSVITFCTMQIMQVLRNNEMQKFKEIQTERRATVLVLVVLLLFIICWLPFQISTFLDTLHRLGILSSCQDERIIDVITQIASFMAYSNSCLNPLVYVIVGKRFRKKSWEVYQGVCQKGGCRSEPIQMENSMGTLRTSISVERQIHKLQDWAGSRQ

[5] = target: 5-hydroxytryptamine receptor 2B (Homo sapiens, UniProt P41595)
[6] = target: Vasopressin V1a receptor (Homo sapiens, UniProt P37288)
[7] = target: T3, 5-hydroxytryptamine receptor 1A (Homo sapiens, UniProt P08908); format: functional, cell-based
T3 sequence (P08908 whole entry): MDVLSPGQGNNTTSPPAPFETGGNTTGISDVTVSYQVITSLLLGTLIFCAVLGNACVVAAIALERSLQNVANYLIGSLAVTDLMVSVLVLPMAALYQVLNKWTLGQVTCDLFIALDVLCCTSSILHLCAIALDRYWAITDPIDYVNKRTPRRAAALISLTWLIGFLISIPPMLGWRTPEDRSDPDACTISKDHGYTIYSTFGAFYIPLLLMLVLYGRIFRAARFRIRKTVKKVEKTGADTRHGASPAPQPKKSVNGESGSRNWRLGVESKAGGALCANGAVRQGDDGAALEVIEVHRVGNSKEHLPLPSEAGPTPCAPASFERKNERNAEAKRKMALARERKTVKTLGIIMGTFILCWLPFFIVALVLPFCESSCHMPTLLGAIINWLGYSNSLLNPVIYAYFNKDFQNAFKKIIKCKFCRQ

[8] = target: Melanocortin receptor 4 (Homo sapiens, UniProt P32245)
[9] = target: Kappa-type opioid receptor (Homo sapiens, UniProt P41145)
[10] = target: Histamine H2 receptor (Homo sapiens, UniProt P25021)
[11] = target: T3, 5-hydroxytryptamine receptor 1A; format: functional, cell-based; remark: listed apart in the source
[12] = target: Cannabinoid receptor 1 (Homo sapiens, UniProt P21554)
[13] = target: Beta-2 adrenergic receptor (Homo sapiens, UniProt P07550); format: functional, cell-based
[14] = target: 5-hydroxytryptamine receptor 2A (Homo sapiens, UniProt P28223); format: functional, cell-based
[15] = target: T4, Progesterone receptor (Homo sapiens, UniProt P06401); format: functional
T4 sequence (P06401 whole entry): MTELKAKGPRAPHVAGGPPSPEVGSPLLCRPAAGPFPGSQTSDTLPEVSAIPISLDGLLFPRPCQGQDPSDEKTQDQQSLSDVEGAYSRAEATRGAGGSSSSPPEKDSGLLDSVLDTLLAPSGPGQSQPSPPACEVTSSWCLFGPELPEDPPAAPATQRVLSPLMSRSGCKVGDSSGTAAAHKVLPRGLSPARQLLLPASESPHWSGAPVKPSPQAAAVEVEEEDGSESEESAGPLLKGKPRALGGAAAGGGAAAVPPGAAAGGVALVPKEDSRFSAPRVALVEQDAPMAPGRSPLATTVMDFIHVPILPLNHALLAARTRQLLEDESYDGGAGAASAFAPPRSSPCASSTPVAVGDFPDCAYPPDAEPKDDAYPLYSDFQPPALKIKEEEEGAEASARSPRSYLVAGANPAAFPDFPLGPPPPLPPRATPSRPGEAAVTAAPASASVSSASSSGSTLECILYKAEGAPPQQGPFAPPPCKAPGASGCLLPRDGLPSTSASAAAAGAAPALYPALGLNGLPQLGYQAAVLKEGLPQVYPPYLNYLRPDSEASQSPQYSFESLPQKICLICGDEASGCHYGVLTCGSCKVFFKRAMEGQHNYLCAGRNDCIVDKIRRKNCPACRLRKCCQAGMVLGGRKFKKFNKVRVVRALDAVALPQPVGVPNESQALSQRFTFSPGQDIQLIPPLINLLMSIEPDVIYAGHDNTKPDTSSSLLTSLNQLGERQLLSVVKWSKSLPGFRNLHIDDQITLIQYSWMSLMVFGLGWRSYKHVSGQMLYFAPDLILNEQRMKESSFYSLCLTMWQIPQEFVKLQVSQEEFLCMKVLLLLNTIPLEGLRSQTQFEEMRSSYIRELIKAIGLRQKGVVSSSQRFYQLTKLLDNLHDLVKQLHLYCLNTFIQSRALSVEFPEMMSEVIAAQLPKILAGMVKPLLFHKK

[16] = target: Mu-type opioid receptor (Homo sapiens, UniProt P35372); test: biochemical; format: functional

Measured: AC50
Also: assay procedure not described here.

Melanocortin receptor 4, sequence (P32245 whole entry): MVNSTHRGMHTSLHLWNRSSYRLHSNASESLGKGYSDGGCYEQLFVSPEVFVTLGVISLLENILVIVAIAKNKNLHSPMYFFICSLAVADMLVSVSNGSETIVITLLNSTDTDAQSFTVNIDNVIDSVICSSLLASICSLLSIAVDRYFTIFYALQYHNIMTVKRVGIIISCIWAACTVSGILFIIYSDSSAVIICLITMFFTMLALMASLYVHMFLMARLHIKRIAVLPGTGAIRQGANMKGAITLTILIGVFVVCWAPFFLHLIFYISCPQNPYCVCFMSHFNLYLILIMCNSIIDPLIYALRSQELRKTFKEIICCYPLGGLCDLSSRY
Kappa-type opioid receptor, sequence (P41145 whole entry): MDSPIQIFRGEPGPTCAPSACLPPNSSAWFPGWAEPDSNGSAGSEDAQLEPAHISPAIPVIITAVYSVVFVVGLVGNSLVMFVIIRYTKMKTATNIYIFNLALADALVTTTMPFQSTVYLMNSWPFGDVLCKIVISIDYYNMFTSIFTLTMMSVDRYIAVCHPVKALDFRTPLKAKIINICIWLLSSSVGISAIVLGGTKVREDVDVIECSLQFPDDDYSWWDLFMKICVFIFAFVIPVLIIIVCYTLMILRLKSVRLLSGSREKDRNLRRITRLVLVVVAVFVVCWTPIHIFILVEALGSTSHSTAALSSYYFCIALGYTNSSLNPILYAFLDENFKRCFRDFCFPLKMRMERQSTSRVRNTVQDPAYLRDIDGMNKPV
5-hydroxytryptamine receptor 2B, sequence (P41595 whole entry): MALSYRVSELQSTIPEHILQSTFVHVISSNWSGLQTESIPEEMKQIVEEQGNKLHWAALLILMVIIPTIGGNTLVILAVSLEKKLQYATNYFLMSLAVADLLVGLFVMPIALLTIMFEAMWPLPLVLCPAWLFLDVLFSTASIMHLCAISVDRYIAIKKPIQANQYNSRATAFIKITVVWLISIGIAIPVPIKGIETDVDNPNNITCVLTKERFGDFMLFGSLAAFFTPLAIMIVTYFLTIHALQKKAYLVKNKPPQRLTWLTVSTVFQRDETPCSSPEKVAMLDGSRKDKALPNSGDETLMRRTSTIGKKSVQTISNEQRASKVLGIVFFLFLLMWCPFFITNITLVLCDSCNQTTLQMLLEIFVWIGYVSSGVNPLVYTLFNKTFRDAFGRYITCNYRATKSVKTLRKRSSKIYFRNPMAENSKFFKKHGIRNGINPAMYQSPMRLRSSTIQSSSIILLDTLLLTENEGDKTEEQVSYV
5-hydroxytryptamine receptor 2A, sequence (P28223 whole entry): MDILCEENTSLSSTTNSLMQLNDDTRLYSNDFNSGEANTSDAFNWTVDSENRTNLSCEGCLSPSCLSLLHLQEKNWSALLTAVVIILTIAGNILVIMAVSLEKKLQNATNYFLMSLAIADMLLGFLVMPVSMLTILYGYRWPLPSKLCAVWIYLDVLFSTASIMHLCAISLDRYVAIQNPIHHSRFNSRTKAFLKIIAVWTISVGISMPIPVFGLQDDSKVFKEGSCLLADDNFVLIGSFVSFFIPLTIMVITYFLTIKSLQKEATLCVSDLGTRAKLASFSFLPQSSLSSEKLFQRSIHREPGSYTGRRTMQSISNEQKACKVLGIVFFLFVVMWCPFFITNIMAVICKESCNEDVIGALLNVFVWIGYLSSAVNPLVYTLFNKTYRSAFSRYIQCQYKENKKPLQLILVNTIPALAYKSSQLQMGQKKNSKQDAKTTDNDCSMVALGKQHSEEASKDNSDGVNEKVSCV
Melanocortin receptor 3, sequence (P41968 whole entry): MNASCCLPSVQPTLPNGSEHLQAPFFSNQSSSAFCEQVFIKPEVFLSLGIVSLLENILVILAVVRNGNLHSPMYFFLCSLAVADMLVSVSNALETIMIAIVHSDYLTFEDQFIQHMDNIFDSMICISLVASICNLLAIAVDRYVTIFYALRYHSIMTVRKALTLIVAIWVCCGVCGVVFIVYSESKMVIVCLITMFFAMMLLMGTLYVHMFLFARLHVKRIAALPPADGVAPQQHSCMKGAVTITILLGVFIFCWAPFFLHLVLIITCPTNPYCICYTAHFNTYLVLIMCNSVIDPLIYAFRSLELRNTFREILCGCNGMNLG
Histamine H2 receptor, sequence (P25021 whole entry): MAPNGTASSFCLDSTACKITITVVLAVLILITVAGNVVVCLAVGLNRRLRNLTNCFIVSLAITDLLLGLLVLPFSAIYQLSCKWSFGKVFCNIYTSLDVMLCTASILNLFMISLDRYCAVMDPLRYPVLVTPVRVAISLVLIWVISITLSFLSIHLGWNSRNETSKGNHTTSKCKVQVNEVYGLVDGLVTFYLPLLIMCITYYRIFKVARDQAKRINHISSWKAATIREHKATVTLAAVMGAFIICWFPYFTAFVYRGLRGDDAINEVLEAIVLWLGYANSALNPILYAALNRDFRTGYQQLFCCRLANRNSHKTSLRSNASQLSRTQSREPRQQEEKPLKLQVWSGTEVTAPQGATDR
3',5'-cyclic-AMP phosphodiesterase 4D, sequence (Q08499 whole entry): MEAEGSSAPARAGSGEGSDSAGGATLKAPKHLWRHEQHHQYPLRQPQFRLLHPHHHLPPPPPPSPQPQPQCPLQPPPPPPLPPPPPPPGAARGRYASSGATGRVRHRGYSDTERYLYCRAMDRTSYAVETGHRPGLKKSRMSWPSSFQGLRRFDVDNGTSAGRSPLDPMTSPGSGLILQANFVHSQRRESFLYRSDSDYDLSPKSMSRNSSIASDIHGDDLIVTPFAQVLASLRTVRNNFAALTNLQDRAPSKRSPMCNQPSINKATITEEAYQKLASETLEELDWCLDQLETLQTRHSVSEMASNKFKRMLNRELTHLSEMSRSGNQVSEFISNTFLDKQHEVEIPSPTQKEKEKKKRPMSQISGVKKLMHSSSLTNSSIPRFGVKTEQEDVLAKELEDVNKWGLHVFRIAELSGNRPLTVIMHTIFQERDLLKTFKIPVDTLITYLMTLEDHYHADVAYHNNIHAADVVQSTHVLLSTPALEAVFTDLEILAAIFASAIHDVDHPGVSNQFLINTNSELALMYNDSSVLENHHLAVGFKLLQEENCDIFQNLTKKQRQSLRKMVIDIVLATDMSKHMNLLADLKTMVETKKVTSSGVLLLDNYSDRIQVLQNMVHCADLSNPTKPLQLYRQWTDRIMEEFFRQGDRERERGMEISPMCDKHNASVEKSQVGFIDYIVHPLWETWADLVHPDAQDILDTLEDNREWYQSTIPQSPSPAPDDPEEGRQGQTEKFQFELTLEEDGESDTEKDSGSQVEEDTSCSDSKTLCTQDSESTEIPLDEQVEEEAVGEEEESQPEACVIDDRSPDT
Vasopressin V1a receptor, sequence (P37288 whole entry): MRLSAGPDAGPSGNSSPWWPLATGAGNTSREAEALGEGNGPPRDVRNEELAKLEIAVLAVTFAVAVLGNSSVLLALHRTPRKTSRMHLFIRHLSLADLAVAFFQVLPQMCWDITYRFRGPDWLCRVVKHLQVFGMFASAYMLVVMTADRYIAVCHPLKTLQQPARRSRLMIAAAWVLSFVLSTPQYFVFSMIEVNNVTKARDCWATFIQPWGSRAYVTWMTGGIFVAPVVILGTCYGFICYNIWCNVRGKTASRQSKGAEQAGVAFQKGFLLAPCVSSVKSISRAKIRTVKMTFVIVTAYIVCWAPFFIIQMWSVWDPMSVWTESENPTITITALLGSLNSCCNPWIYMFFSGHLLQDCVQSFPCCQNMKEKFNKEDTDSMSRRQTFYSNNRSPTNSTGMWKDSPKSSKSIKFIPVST
Beta-2 adrenergic receptor, sequence (P07550 whole entry): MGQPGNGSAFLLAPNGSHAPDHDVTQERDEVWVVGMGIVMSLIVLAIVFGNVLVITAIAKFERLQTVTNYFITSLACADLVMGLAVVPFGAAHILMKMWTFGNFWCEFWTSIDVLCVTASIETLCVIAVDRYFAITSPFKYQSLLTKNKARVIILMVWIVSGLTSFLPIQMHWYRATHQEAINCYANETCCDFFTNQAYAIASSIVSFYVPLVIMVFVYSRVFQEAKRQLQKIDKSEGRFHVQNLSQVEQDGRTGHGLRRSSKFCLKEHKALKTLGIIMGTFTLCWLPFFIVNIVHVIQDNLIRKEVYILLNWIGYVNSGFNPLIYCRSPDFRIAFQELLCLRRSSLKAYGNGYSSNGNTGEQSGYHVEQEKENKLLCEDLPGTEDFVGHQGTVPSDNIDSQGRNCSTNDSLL
Cannabinoid receptor 1, sequence (P21554 whole entry): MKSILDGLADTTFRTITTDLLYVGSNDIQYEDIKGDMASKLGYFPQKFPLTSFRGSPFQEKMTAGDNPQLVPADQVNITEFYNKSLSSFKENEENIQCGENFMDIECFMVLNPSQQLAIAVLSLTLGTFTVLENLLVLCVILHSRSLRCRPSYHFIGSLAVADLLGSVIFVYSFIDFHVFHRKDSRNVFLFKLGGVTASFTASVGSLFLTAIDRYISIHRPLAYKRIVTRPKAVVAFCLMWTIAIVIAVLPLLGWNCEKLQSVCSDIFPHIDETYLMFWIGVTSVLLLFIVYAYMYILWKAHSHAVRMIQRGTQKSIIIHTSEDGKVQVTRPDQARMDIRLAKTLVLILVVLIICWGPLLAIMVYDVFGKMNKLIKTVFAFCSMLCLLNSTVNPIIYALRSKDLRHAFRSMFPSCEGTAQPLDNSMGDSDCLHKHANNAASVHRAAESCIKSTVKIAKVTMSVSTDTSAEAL
Mu-type opioid receptor, sequence (P35372 whole entry): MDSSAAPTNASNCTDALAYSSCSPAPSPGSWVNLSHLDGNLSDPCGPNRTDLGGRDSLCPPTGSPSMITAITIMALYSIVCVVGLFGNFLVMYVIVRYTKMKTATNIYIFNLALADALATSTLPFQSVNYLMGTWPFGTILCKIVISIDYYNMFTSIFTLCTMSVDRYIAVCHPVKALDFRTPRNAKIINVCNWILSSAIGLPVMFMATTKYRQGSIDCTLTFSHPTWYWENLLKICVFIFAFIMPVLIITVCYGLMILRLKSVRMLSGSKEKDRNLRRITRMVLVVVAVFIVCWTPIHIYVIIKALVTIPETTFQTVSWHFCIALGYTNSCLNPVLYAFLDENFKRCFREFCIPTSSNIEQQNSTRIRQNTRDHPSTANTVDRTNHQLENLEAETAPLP

CC1=C(CC(=O)O)c2cc(F)ccc2/C1=C\c1ccc([S+](C)[O-])cc1 (centres undefined)
> 30 µM: [1] | [2] | [3] | [4] | [6] | [8]
> 10 µM: [5] | [7] | [9] | [10] | [11]

O=C(O[C@H]1C[N+]2(CCCOc3ccccc3)CCC1CC2)C(O)(c1cccs1)c1cccs1 [ACLIDINIUM BROMIDE]
> 10 µM: [12] | [5] | [6] | [10]
> 30 µM: [1] | [2] | [3] | [4] | [8]
13.9 µM: [9]

Cc1nnc2n1-c1ccc(Cl)cc1C(c1ccccc1)=NC2 [ALPRAZOLAM]
3.35 µM: [12]
> 30 µM: [1] | [2] | [3] | [4] | [13] | [8]
> 10 µM: [5] | [6] | [7] | [10] | [11]
7.48 µM: [9]

CC(NC(C)(C)C)C(=O)c1cccc(Cl)c1 (centres undefined) [BUPROPION]
> 10 µM: [12] | [5] | [6] | [7] | [10] | [11]
> 30 µM: [1] | [3] | [4] | [13] | [8]

COc1ccc(C(Cl)=C(c2ccc(OC)cc2)c2ccc(OC)cc2)cc1 [CHLOROTRIANISENE]
> 30 µM: [14] | [2] | [3] | [15] | [4] | [16] | [6] | [13] | [9] | [11]
> 10 µM: [12] | [7] | [8]

CC(=O)Oc1cccc2c1C(=O)c1c(OC(C)=O)cc(C(=O)O)cc1C2=O [DIACEREIN]
8.8 µM: [2]
28 µM: [4]
> 30 µM: [3] | [16] | [5] | [9]
25 µM: [6]
18 µM: [14] | [11]

OCCN(CCO)c1nc(N2CCCCC2)c2nc(N(CCO)CCO)nc(N3CCCCC3)c2n1 [DIPYRIDAMOLE]
4.5 µM: [2]
> 10 µM: [7]
> 30 µM: [12] | [3] | [4] | [16] | [5] | [8] | [9] | [11]

CCOC(=O)C1=C(C)NC(C)=C(C(=O)OC)C1c1cccc(Cl)c1Cl (centres undefined) [FELODIPINE]
3.2 µM: [2]
> 10 µM: [5] | [6] | [7] | [10] | [11]
8.88 µM: [9]
13.4 µM: [12]
> 30 µM: [1] | [3] | [4] | [8]

CN1C(=O)CN=C(c2ccccc2F)c2cc([N+](=O)[O-])ccc21 [FLUNITRAZEPAM]
> 10 µM: [12] | [5] | [6] | [7] | [10] | [11]
6.39 µM: [9]
18.6 µM: [3]
> 30 µM: [1] | [2] | [4] | [8]

CN1C2CCCC1CC(NC(=O)c1nn(C)c3ccccc13)C2 (centres undefined) [GRANISETRON]
> 10 µM: [12] | [2] | [6] | [7] | [9] | [10] | [11]
> 30 µM: [1] | [3] | [4] | [13] | [8]

N=C(N)NC(=O)Cc1c(Cl)cccc1Cl [GUANFACINE]
5.4 µM: [11]
> 30 µM: [2] | [3] | [4] | [16] | [6] | [7] | [8]
> 10 µM: [12]
5.95 µM: [9]
1.34 µM: [5]

COc1ccc2c3c1O[C@H]1C(=O)CC[C@H]4[C@@H](C2)N(C)CC[C@]314 [HYDROCODONE]
9.5 µM: [2]
> 10 µM: [5] | [6] | [7] | [10] | [11]
> 30 µM: [14] | [1] | [3] | [4] | [13] | [8]

CN1CCC(=C2c3ccccc3CC(=O)c3sccc32)CC1 [KETOTIFEN]
> 30 µM: [2] | [16] | [13]
5.38 µM: [9]
> 10 µM: [12] | [3] | [15] | [4] | [6] | [7] | [8] | [11]
0.0328 µM: [5]

CCN(CC)CC(=O)Nc1c(C)cccc1C [LIDOCAINE]
22.7 µM: [8]
23 µM: [3]
> 30 µM: [1] | [4]
> 10 µM: [2] | [6]

CC1NCCOC1c1ccccc1 (centres undefined) [PHENMETRAZINE]
> 10 µM: [12] | [7] | [9] | [11]
> 30 µM: [14] | [1] | [2] | [3] | [4] | [6] | [13] | [8]

CC(C)(N)Cc1ccccc1 [PHENTERMINE]
> 10 µM: [12] | [7] | [9] | [11]
> 30 µM: [14] | [1] | [2] | [3] | [4] | [6] | [13] | [8]
